System: not listed separately
Experiment: Inhibition of TNFalpha-induced NFkappaB (unknown origin) activation expressed in mouse NIH-3T3 cells […] followed by TNFalpha addition measured after 6 hrs by luciferase reporter gene assay
Format: cell-based
Conditions: NIH3T3

Structure (SMILES) | IC50
C=C1C(=O)O[C@@H]2/C=C(\CO)CC/C=C(\C)C[C@H](OC(=O)/C(=C/C)CO)[C@@H]12 | 42.1 µM
C=C[C@]1(C)C[C@H](OC(=O)C(=C)CO)[C@H]2C(=C)C(=O)O[C@@H]2[C@H]1C(=C)CO | 22.5 µM
C=C[C@]1(C)C[C@H](OC(=O)C(=C)CO)[C@@H](C(=C)C(=O)OC)[C@H](O)[C@H]1C(=C)CO | 45 µM
C=C(CO)C(=O)O[C@H]1C/C(C)=C/CC/C(CO)=C/[C@H]2OC(=O)C(=C)[C@H]12 | 8.6 µM
C=C[C@]1(C)C[C@H](OC(=O)C(=C)CO)[C@H]2C(=C)C(=O)O[C@@H]2[C@H]1C(=C)C=O | 3.6 µM
C=C(CO)C(=O)O[C@H]1C[C@@H]2[C@@H]([C@@H](O)[C@@H]1C(=C)C(=O)OC)[C@H](C=O)CC[C@H]2O | > 50 µM

System: RAW264.7
Experiment: Antiinflammatory activity in mouse RAW264.7 cells assessed as inhibition of LPS-induced nitric oxide production at 25 uM relative to control
Format: functional
Conditions: not given

Structure (SMILES) | inhibition at 25 µM
C=C1C(=O)OC2CC(C)=C(C(C)CCCOC(C)=O)C(OC(C)=O)C12 (configuration not stated) | 68.9%
CC1CCC(O)[C@@]2(C)C[C@H]3OC(=O)[C@H](C)[C@H]3C=C12 (some centres not stated) | 14.6%
C=C1C(=O)O[C@@H]2C[C@@]3(C)C(=C(C)C(O)CC3O)C[C@H]12 (some centres not stated) | 23.8%
CC1=C2C[C@H]3[C@@H](C[C@]2(C)C(O)CC1=O)OC(=O)[C@@H]3C (some centres not stated) | 23.6%
C=C1C(=O)O[C@@H]2C[C@]3(C)C(O)CCC(C)C3(O)C[C@H]12 (some centres not stated) | 37.1%

Biological target: T1, Prostaglandin G/H synthase 2 (Homo sapiens) (UniProt P35354)
T1 sequence (whole entry): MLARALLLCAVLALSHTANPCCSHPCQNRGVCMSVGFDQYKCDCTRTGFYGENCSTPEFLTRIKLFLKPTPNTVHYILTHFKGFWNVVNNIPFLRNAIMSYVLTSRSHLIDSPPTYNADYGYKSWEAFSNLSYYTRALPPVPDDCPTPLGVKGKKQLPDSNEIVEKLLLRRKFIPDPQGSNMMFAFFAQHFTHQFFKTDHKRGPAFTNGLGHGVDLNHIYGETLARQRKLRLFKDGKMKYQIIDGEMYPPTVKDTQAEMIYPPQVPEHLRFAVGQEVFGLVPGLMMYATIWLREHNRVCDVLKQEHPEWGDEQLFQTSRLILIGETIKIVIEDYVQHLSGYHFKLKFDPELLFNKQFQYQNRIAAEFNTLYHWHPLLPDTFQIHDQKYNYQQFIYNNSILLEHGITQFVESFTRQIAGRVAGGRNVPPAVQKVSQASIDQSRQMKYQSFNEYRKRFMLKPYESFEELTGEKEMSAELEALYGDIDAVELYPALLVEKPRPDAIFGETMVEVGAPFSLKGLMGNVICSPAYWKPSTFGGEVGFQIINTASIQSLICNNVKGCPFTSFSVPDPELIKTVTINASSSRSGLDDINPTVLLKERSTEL
Experiment: Inhibition of N-terminal His6-tagged recombinant human COX2 expressed in baculovirus infected sf21 cells at 20 uM relative to control
Conditions: not given

Structure (SMILES) | inhibition
C=C1C(=O)O[C@@H]2[C@H]3[C@@H](C)C(=O)C[C@H]3C(=C)CC[C@@H]12 | 98.6%
C=C1[C@@H]2[C@H]3OC(=O)C(=C)[C@@H]3CCC(=C)[C@@H]2C[C@@H]1O | 97%

Biological target: Nitric oxide synthase, inducible (Homo sapiens, UniProt P35228)
Experiment: Inhibition of iNOS (unknown origin) at 20 uM relative to control
Conditions: not given

Nitric oxide synthase, inducible, sequence (P35228 whole entry): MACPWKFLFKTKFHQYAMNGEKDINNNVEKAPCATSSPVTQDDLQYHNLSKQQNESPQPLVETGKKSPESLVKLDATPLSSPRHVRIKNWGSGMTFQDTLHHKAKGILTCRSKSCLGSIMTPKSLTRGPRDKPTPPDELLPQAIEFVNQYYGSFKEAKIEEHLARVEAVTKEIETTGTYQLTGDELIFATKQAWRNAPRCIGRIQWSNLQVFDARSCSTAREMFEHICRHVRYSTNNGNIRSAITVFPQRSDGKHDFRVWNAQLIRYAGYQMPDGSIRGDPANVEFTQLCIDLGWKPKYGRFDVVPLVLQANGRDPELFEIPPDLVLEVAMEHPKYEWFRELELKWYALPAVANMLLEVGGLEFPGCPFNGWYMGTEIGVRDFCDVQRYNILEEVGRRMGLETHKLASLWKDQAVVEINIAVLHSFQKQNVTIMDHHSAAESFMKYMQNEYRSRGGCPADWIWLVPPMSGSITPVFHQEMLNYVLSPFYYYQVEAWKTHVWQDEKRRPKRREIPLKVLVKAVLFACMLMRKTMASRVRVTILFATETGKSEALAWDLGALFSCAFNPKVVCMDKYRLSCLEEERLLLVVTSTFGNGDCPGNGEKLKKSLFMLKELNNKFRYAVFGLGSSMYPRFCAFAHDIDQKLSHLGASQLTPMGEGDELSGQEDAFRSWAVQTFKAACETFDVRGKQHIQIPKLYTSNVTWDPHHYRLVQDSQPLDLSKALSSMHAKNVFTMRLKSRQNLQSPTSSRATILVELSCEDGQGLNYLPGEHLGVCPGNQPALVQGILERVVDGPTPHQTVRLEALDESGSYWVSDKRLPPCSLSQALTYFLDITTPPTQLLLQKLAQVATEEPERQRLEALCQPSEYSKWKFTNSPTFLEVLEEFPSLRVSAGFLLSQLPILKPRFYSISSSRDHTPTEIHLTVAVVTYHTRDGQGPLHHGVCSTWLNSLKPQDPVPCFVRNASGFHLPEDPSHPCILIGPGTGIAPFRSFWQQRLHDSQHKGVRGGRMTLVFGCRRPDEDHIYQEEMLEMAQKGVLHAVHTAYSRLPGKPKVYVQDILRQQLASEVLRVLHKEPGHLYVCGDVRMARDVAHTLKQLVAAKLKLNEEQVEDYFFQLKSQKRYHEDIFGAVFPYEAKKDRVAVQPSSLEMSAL

Structure (SMILES) | inhibition
C=C1C(=O)O[C@@H]2[C@H]3[C@@H](C)C(=O)C[C@H]3C(=C)CC[C@@H]12 | 100%
COc1cc(C2OCC3C(c4ccc(O)c(OC)c4)OCC23)ccc1O (configuration not stated) | 49.1%
C=C1[C@@H]2[C@H]3OC(=O)C(=C)[C@@H]3CCC(=C)[C@@H]2C[C@@H]1O | 99.4%

Biological target: T2, Prostaglandin G/H synthase 2 (Homo sapiens, UniProt P35354)
T2 sequence (P35354 whole entry): T1 sequence (whole entry)
Experiment: Inhibition of COX2 (unknown origin)
Conditions: not given

Structure (SMILES) | IC50
CC(C)[C@@H]1CC[C@]2(C)[C@@H]3C(C=C4[C@@H]5CC(C)(C)C(=O)C[C@]5(C)CC[C@]42C)OC(=O)CC(O)[C@]31C (some centres not stated) | 460 µM
CC(C)[C@@H]1CC[C@]2(C)[C@@H]3C(C=C4[C@@H]5CC(C)(C)CC[C@]5(C)CC[C@]42C)OC(=O)CC[C@]31C (some centres not stated) | 650 µM
COOC[C@@]1(C)CC[C@]2(C)CC[C@]3(C)[C@@H]4CCc5cc(O)c(O)cc5[C@]4(C)CC[C@@]3(C)C2C1 (some centres not stated) | 430 µM

System: RAW264.7
Experiment: Antiinflammatory activity in mouse RAW264.7 cells assessed as inhibition of LPS-induced nitric oxide production after 24 hrs by Griess reagent based assay relative to control
Format: functional, cell-based
Conditions: RAW264.7, 24 h

Structure (SMILES) | IC50
C[C@@H]1O[C@@H](O[C@H]2[C@H](O[C@H]3[C@H](O[C@H]4CC[C@@]5(C)[C@@H](CC[C@]6(C)[C@@H]5CC=C5[C@@H]7C[C@]8(C)C[C@@H](OC8=O)[C@]7(C)CC[C@]56C)[C@@]4(C)CO)O[C@H](C(=O)O)[C@@H](O)[C@@H]3O)O[C@H](CO)[C@H](O)[C@@H]2OC=O)[C@H](O)[C@H](O)[C@H]1O | 16.1 µM
C[C@@H]1O[C@@H](O[C@H]2[C@H](O[C@H]3[C@H](O[C@H]4CC[C@@]5(C)[C@@H](CC[C@]6(C)[C@@H]5CC=C5[C@@H]7C[C@]8(C)C[C@@H](OC8=O)[C@]7(C)CC[C@]56C)[C@@]4(C)CO)O[C@H](C(=O)O)[C@@H](O)[C@@H]3O)OC[C@@H](O)[C@@H]2O)[C@H](O)[C@H](O)[C@H]1O | 18.8 µM
C[C@@H]1[C@H](O)CC[C@]2(C(=O)O)CC[C@]3(C)C(CC[C@@H]4[C@@]5(C)CC[C@H](O[C@@H]6O[C@H](C(=O)O)[C@@H](O)[C@H](O)[C@H]6O[C@@H]6O[C@H](CO)[C@H](O)[C@H](O)[C@H]6O[C@@H]6O[C@@H](C)[C@H](O)[C@@H](O)[C@H]6O)C(C)(C)[C@@H]5CC[C@]43C)[C@H]12 (some centres not stated) | 13.2 µM

System: RAW264.7
Experiment: Cytotoxicity against mouse RAW264.7 cells assessed as cell viability after 24 hrs by MTT assay relative to control
Format: functional
Conditions: not given

Structure (SMILES) | Activity
C[C@@H]1O[C@@H](O[C@H]2[C@H](O[C@H]3[C@H](O[C@H]4CC[C@@]5(C)[C@@H](CC[C@]6(C)[C@@H]5CC=C5[C@@H]7C[C@]8(C)C[C@@H](OC8=O)[C@]7(C)CC[C@]56C)[C@@]4(C)CO)O[C@H](C(=O)O)[C@@H](O)[C@@H]3O)O[C@H](CO)[C@H](O)[C@@H]2OC=O)[C@H](O)[C@H](O)[C@H]1O | 95.2%
C[C@@H]1O[C@@H](O[C@H]2[C@H](O[C@H]3[C@H](O[C@H]4CC[C@@]5(C)[C@@H](CC[C@]6(C)[C@@H]5CC=C5[C@@H]7C[C@]8(C)C[C@@H](OC8=O)[C@]7(C)CC[C@]56C)[C@@]4(C)CO)O[C@H](C(=O)O)[C@@H](O)[C@@H]3O)OC[C@@H](O)[C@@H]2O)[C@H](O)[C@H](O)[C@H]1O | 97.6%
C[C@@H]1[C@H](O)CC[C@]2(C(=O)O)CC[C@]3(C)C(CC[C@@H]4[C@@]5(C)CC[C@H](O[C@@H]6O[C@H](C(=O)O)[C@@H](O)[C@H](O)[C@H]6O[C@@H]6O[C@H](CO)[C@H](O)[C@H](O)[C@H]6O[C@@H]6O[C@@H](C)[C@H](O)[C@@H](O)[C@H]6O)C(C)(C)[C@@H]5CC[C@]43C)[C@H]12 (some centres not stated) | 96.8%

System: RAW264.7
Experiment: Antiinflammatory activity against mouse RAW264.7 cells assessed as inhibition of LPS induced iNOS at 30 uM preincubated for 1 hr followed by LPS stimulation measured after 18 hrs relative to control
Format: functional
Conditions: not given

Structure (SMILES) | inhibition at 30 µM
CC1=C2C3=CC[C@@H]4[C@@]5(C)CC[C@H](O[C@@H]6OC[C@@H](O)[C@H](O)[C@H]6O)C(C)(C)[C@@H]5CC[C@@]4(C)[C@]3(C)CC[C@@]2(C(=O)O[C@@H]2O[C@H](CO)[C@@H](O)[C@H](O)[C@H]2O)CC[C@H]1C | 64.9%
CC1=C(C)[C@H]2C3=CC[C@@H]4[C@@]5(C)CC[C@H](O[C@@H]6OC[C@@H](O)[C@H](O)[C@H]6O[C@@H]6O[C@H](CO)[C@@H](O)[C@H](O)[C@H]6O)C(C)(C)[C@@H]5CC[C@@]4(C)[C@]3(C)CC[C@@]2(C(=O)O[C@@H]2O[C@H](CO)[C@@H](O)[C@H](O)[C@H]2O)CC1 | 72%
CC1=C2C3=CC[C@@H]4[C@@]5(C)CC[C@H](O[C@@H]6OC[C@@H](O)[C@H](O)[C@H]6O[C@@H]6O[C@H](CO)[C@@H](O)[C@H](O)[C@H]6O)C(C)(C)[C@@H]5CC[C@@]4(C)[C@]3(C)CC[C@@]2(C(=O)O[C@@H]2O[C@H](CO)[C@@H](O)[C@H](O)[C@H]2O)CC[C@H]1C | 75%
CC1(C)CC[C@]2(C(=O)O[C@@H]3O[C@H](CO)[C@@H](O)[C@H](O)[C@H]3O)CC[C@]3(C)C(=CC[C@@H]4[C@@]5(C)CC[C@H](O[C@@H]6O[C@H](C(=O)O)[C@@H](O)[C@H](O)[C@H]6O)C(C)(C)[C@@H]5CC[C@]43C)[C@@H]2C1 [CHIKUSETSUSAPONIN IVA] | 92.8%

Biological target: T3, Prostaglandin G/H synthase 1 (Ovis aries, UniProt P05979)
T3 sequence (P05979 whole entry): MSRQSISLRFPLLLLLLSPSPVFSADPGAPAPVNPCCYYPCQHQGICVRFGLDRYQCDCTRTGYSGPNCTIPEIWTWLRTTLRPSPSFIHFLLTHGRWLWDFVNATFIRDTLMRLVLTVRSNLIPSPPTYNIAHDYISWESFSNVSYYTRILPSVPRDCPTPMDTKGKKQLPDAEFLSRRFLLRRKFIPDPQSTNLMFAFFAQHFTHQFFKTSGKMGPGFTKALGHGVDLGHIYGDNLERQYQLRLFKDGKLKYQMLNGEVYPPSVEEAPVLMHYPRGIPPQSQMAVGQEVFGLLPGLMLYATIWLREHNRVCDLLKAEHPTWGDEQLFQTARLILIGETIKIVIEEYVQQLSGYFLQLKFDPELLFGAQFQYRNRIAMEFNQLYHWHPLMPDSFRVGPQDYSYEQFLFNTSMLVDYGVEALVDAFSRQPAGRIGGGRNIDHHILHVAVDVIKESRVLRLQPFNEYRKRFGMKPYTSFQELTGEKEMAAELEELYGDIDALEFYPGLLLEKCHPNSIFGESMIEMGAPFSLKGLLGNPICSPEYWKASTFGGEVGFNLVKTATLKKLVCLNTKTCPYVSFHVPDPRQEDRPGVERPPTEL
Experiment: Inhibition of ovine COX1
Conditions: not given

Structure (SMILES) | IC50
O=C(/C=C/c1ccc(O)c(O)c1)OC(C(=O)O)C(OC(=O)/C=C/c1ccc(O)c(O)c1)C(OC(=O)/C=C/c1ccc(O)c(O)c1)C(OC(=O)/C=C/c1ccc(O)c(O)c1)C(=O)O (configuration not stated) | 2.09 µM
O=C(/C=C/c1ccc(O)c(O)c1)OC1CC(O)(C(=O)O)CC(O)C1OC(=O)/C=C/c1ccc(O)c(O)c1 (configuration not stated) | 5.87 µM
O=C(/C=C/c1ccc(O)c(O)c1)OC1CC(O)(C(=O)O)CC(OC(=O)/C=C/c2ccc(O)c(O)c2)C1O (configuration not stated) | 4.96 µM

System: BV-2
Experiment: Antiinflammatory activity in mouse BV2 cells assessed as inhibition of LPS-induced nitric oxide production at 10 uM relative to control
Format: functional
Conditions: not given

Structure (SMILES) | inhibition at 10 µM
COc1cc(CC2C(=O)OCC2C(O)c2ccc(OC)c(OC)c2)ccc1O (configuration not stated) | 63.3%
COc1ccc(CC2COC(=O)C2Cc2cc(C(=O)O)oc(=O)c2)cc1OC (configuration not stated) | 75.5%
COc1ccc(C(O)C2COC(=O)C2Cc2ccc(OC3O[C@H](CO)[C@@H](O)[C@H](O)[C@H]3O)c(OC)c2)cc1OC (some centres not stated) | 87.8%
COc1cc(CC2C(=O)OCC2Cc2cc(OC)c(O)c(C(CO)CO)c2)ccc1OC1O[C@H](CO)[C@@H](O)[C@H](O)[C@H]1O (some centres not stated) | 71.6%
COc1cc(/C=C/C(=O)CC(=O)/C=C/c2ccc(O)c(OC)c2)ccc1O [CURCUMIN] | 53%

System: RAW264.7
Experiment: Antiinflammatory activity in mouse RAW264.7 cells assessed as inhibition of LPS-induced nitric oxide production at […] after 24 hrs by Griess reagent based assay relative to control
Format: functional
Design: dose or concentration left out as unconfirmed
Conditions: RAW264.7, 24 h

Structure (SMILES) | inhibition
CC(C)=CCOc1cc(O)c2c(=O)c3cc(OCC=C(C)C)c(OCC=C(C)C)cc3oc2c1 | 81.4%
O=c1c2ccc(O)c(O)c2oc2cc(O)cc(O)c12 | 78.9%
CC(C)=CC[C@@H]1C[C@]23C[C@@H](CC=C(C)C)C(C)(C)[C@](CC=C(C)C)(C(=O)C(C(=O)c4ccc(O)c(O)c4)=C2OC1(C)C)C3=O | 92.9%
COc1cc(C)c2c(=O)c3c(O)cc(OC)cc3oc2c1 [LICHEXANTHONE] | 32%
CC(C)=CCOc1cc(O)c2c(=O)c3cc(OCC=C(C)C)c(O)cc3oc2c1 | 84.2%
